Measured values: ChEMBL document CHEMBL5223137, “Mapping Ligand Interactions of Bromodomains BRD4 and ATAD2 with FragLites and PepLites─Halogenated Probes of Druglike and Peptide-like Molecular Interactions” (J Med Chem, 2022)

molecular target: T1, ATPase family AAA domain-containing protein 2 (Homo sapiens, UniProt Q6PL18); experiment: Inhibition of His-6 tagged recombinant human ATAD2 (981 to 1108 residues) expressed in Escherichia coli BL21 (DE3) rosetta cells by HTRF assay
T1 sequence (Q6PL18 whole entry): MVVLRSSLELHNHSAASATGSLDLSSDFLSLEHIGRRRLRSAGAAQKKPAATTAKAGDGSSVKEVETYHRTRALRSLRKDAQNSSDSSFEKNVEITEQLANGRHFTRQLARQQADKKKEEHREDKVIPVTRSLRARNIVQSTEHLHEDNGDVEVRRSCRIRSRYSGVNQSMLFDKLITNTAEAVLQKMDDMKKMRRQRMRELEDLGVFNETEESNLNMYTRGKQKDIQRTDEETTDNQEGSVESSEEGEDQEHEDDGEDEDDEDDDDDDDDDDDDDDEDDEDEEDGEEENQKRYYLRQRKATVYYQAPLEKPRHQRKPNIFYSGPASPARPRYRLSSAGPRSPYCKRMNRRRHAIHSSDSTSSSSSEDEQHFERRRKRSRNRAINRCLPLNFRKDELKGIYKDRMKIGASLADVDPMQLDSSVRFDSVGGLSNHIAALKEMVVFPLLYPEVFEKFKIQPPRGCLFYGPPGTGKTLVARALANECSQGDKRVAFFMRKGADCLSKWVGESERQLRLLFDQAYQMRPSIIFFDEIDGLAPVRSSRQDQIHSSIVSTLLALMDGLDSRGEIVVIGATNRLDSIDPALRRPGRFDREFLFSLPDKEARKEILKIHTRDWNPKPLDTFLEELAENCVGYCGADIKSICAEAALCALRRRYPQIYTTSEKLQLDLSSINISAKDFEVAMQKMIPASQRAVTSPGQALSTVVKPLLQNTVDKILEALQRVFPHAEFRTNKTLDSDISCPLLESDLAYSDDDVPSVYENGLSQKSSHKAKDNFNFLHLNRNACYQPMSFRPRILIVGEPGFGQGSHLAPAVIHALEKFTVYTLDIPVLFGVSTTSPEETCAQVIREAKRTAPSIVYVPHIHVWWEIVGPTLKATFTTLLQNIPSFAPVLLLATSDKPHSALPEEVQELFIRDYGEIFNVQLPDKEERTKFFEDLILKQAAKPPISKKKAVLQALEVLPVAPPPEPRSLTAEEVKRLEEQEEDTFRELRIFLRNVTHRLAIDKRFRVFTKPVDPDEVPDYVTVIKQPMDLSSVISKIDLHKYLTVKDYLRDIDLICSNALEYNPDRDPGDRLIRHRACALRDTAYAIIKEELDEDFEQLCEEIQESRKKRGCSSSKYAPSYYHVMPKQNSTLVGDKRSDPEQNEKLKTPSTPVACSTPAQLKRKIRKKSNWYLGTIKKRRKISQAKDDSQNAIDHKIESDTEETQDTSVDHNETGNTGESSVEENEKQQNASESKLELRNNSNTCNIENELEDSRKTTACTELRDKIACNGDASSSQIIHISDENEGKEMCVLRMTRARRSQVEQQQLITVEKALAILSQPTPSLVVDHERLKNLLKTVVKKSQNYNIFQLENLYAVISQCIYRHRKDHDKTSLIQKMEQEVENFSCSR

| Compound | IC50 [µM] |
| --- | --- |
| Cn1cccc(NCC2CCNCC2)c1=O | 543 |
| CN1CCNc2c1ccn(C)c2=O | 822 |
| Cn1ccc(NCc2ccccn2)c(N)c1=O | 55 |
| Cn1cc(Br)cc(N)c1=O | 377 |
